Nine molecules from publication PMC11025159 (Journal of Translational Medicine, 2024) can be followed below.

The target in assay [1] is T1, JAK3 (Homo sapiens, UniProt P52333).
T1 construct: purchased Promega Corporation V3701
T1 sequence (P52333 1-1124): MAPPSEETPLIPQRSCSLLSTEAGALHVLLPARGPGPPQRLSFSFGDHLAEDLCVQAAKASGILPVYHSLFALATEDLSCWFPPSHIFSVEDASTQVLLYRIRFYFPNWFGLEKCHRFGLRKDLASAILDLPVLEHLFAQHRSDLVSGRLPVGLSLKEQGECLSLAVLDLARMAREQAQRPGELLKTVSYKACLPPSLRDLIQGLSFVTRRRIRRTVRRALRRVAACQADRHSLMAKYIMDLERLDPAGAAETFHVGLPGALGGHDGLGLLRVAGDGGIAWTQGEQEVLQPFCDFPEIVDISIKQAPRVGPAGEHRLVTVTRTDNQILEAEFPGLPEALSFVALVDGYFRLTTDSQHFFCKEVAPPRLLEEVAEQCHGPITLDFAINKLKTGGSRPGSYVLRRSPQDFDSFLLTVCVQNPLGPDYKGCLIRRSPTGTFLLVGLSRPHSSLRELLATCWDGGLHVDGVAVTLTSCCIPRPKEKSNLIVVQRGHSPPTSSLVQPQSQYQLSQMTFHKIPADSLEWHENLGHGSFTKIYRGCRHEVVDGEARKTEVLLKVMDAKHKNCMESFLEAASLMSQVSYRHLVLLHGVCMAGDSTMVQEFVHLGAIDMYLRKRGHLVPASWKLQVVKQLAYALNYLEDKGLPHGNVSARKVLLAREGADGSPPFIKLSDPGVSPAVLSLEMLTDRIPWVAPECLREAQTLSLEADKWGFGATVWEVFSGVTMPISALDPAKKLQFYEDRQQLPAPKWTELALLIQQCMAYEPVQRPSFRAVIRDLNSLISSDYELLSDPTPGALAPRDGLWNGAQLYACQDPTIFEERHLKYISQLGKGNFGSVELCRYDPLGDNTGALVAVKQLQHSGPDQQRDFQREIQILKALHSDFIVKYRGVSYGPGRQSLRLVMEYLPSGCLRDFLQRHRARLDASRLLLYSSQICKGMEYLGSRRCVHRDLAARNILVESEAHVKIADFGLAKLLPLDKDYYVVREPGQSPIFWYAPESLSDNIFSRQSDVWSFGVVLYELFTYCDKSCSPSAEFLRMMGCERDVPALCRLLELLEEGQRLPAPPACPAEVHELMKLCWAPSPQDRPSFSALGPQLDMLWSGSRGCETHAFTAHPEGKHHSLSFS
Description: Cell-free kinase assay JAK3. The class given is biochemical. Conditions: structure-activity statement. Here is the method: The cell-free kinase assays of small molecules were determined by following the manufacturer-recommended protocols. Different concentrations in triplicate were used to determine the IC50 value of the hit molecules (active molecules). For data analysis, GraphPad Prism V9.5 Software and a sigmoidal dose–response (variable slope) equation were used. Each value represents an average of three replicates per concentration.

In assay [2] the test system is Mia PaCa-2. As to the kind of experiment: MTT cell viability assay Mia PaCa-2. The format is cell-based, human. To be noted: 48 h. As to the method: (§1) Cell viability was evaluated using an MTT colorimetric assay. Cells were seeded (10^5 cells/mL) in 96-well plates and allowed to grow overnight at 37 ℃ with 5% CO2 in a cell-culture incubator. On the following day, the cells were treated with small molecules at different concentrations (0.2–10 micro-molar) or vehicle (DMSO). Cells were then further incubated for 48 h.
(In general: Formazan colour is commonly taken as a measure of viable cells.)

In assay [3] the test system is A549. As to the kind of experiment: MTT cell viability assay A549. The format is cell-based, human. Conditions: 48 h. As to the method:
as §1

The test system of assay [4] is HEK-293. Description: MTT cell viability assay HEK-293. The class given is cell-based, human. To be noted: read-out: IC50 HEK-293; MTT, 48 h; normal cell line. Here is the method: as §1
The subject of assay [5] is HCT-116. As to the kind of experiment: MTT cell viability assay HCT-116. The format is cell-based, human. Conditions: 48 h. Here is the method: as §1
Assay [6] relates to MCF-7. As to the kind of experiment: MTT cell viability assay MCF-7. The format is cell-based, human. To be noted: 48 h. As to the method: as §1
The subject of assay [7] is Panc-2. Description: MTT cell viability assay Panc-2. The class given is cell-based. Conditions: 48 h. Here is the method: as §1

SMILES strings stand for the structures.

For `Fc1ccc(-c2cnc3[nH]cc(-c4ccnc(NCCN5CCOCC5)n4)c3c2)cc1` [MJ10], the “inhibitory activity against JAK3 in kinase assays and in MTT assays” value (from here on “inhibitory activity against JAK3”) in assay [1] is given as “significant inhibitory activity”. The IC50 in assay [2] is 6.71 µM; in assay [3], 6.99 µM; in assay [4] it was more than 100 µM; in assay [5], 5.36 µM; in assay [6], 8.61 µM; in assay [7], 33.6 µM.
As to `Clc1ccc(-c2cnc3[nH]cc(-c4ccnc(NC5CC5)n4)c3c2)cc1` [MJ05], the “inhibitory activity against JAK3” value in assay [1] was “significant inhibitory activity”. Further, the IC50 in assay [2] was 6.59 µM; in assay [3], 3.71 µM; in assay [4] it was more than 100 µM; in assay [5], 8.72 µM; in assay [6], 4.47 µM; in assay [7], 7.76 µM.
In the case of `Nc1nccc(-c2c[nH]c3ncc(-c4cccc(C(F)(F)F)c4)cc23)n1` [MJ08], in assay [1], the “inhibitory activity against JAK3” value is on record as “less active”. In addition, the IC50 is 5.38 µM in assay [2]; 5.1 µM in assay [3]; more than 100 µM in assay [4]; 1.18 µM in assay [5]; 6.88 µM in assay [6]; 19.3 µM in assay [7].
As for `Fc1cccc(-c2cnc3[nH]cc(-c4ccnc(NC5CC5)n4)c3c2)c1` [MJ06], the “inhibitory activity against JAK3” value in assay [1] is recorded as “significant inhibitory activity”. Further, the IC50 in assay [2] was 3.66 µM; in assay [3], 4.31 µM; in assay [4], more than 100 µM; in assay [5], 1.52 µM; in assay [6] it was 3.31 µM; in assay [7], 7.33 µM.
Turning to `CSc1ccccc1-c1cnc2[nH]cc(-c3ccnc(NC4CC4)n3)c2c1` [MJ03], the “inhibitory activity against JAK3” value in assay [1] is “significant inhibitory activity”. In addition, the IC50 in assay [2] was 18.1 µM; in assay [3], 2.88 µM; in assay [4], more than 100 µM; in assay [5], 8.2 µM; in assay [6] it was 10.2 µM; in assay [7], 11 µM.
Consider `c1cncc(-c2cnc3[nH]cc(-c4ccnc(NCCN5CCOCC5)n4)c3c2)c1` [MJ09], for which, in assay [1], the “inhibitory activity against JAK3” value was “significant inhibitory activity”. In addition, the IC50 in assay [2] was 2.16 µM; in assay [3], 5.74 µM; in assay [4], more than 100 µM; in assay [5], 3.22 µM; in assay [6], 11.5 µM; in assay [7], 26.3 µM.
As to `CSc1ccc(-c2cnc3[nH]cc(-c4ccnc(NC5CC5)n4)c3c2)cc1` [MJ02], the “inhibitory activity against JAK3” value in assay [1] is on record as “significant inhibitory activity”. In addition, the IC50 in assay [2] was 7.1 µM; in assay [3], 3.13 µM; in assay [4] it was more than 100 µM; in assay [5], 3.12 µM; in assay [6] it was 1.83 µM; in assay [7] it was 4.67 µM.
In the case of `Nc1nccc(-c2c[nH]c3ncc(-c4cccc(F)c4)cc23)n1` [MJ07], the “inhibitory activity against JAK3” value in assay [1] is “less active”. Further, the IC50 was 3.22 µM in assay [2]; 5.55 µM in assay [3]; more than 100 µM in assay [4]; 6.34 µM in assay [5]; 1.38 µM in assay [6]; 3.12 µM in assay [7].
Take `c1coc(-c2cnc3[nH]cc(-c4ccnc(NC5CC5)n4)c3c2)c1` [MJ01]: the “inhibitory activity against JAK3” value in assay [1] was “significant inhibitory activity”. Also, the IC50 in assay [2] was 8.3 µM; in assay [3], 0.47 µM; in assay [4] it was more than 100 µM; in assay [5] it was 1.89 µM; in assay [6], 1.65 µM; in assay [7], 3.16 µM.

A word on the IC50: it is the point on the concentration scale where inhibition reaches its midpoint.
